In patent US12139492B2 (Endotarget Inc., priority 2021, dated 2024):

Key:
[1] = system: Mino cells; assay: Antiproliferative effect, MTS cell viability assay, Mino cells; assay type: cell-based; details: Homo sapiens, MINO, Mino mantle cell lymphoma cells; read-out: IC50 (anti-proliferation) Mino cells
Outline: (§1)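 Steps: seed B-cell lymphoma line; add compound at 0, 0.001, 0.01, 0.1, 1 or 10 μM; incubate 72 h; add MTS and read reduced tetrazolium (formazan) absorbance at 490 nm.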

[2] = system: JeKo-1 cells; assay: Antiproliferative effect, MTS cell viability assay, JeKo-1 cells; assay type: cell-based; details: Homo sapiens; JeKo-1 mantle cell lymphoma cells; read-out: IC50 (anti-proliferation) JeKO-1 cells
Outline: as §1

[3] = target: T1, BTK (Homo sapiens, UniProt Q06187); assay: BTK degradation, DC50 and Dmax of Table 1 (cell line not given); assay type: cell-based; parameters: endogenous in cells; details: for DC50: concentration giving 50% reduction of BTK expression level
T1 sequence (Q06187 whole entry): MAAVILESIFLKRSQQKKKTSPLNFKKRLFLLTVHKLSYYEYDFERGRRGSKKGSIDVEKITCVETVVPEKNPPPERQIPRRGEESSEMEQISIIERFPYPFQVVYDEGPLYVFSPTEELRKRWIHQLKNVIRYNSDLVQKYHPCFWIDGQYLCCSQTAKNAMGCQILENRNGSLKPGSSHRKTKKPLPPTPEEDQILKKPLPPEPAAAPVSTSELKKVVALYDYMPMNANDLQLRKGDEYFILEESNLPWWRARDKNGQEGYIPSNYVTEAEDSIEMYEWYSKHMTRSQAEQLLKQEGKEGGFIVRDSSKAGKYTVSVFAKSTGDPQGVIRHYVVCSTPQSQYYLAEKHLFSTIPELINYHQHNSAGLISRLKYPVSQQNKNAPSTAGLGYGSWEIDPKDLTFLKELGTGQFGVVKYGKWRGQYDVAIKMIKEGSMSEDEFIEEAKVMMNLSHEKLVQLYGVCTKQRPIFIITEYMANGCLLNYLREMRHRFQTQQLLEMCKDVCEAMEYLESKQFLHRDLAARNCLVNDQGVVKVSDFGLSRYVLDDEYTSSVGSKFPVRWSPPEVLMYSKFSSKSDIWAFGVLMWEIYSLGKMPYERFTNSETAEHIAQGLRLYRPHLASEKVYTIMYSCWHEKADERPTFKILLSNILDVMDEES

[4] = target: T1, BTK; assay: Degradation of BTK protein in Namalwa cells (Western blot; DC50, Dmax); details: Namalwa B lymphocyte cells, Western blot

| Dmax [3] [%] | DC50 [3] [µM] | degradation of BTK protein at 10^−6 M ([4]; 10^−6 M) | degradation of BTK protein ([4]; various concentrations, 24 hours) | Structure (SMILES) | IC50 [1] [µM] | IC50 [2] [µM] |
| --- | --- | --- | --- | --- | --- | --- |
| > 50 | > 0.05 | – | – | Nc1ncnc2c1c(-c1ccc(Oc3ccccc3)cc1)nn2[C@@H]1CCCN(C2CCN(C(=O)N3CCC(c4ccc5c(c4)C(=O)N(C4CCC(=O)NC4=O)C5=O)CC3)CC2)C1 (stereo partly drawn) [Compound 157, 5-(1-((R)-3-(4-amino-3-(4-phenoxyphenyl)-1H-pyrazolo[3,4-d]pyrimidin-1-yl)-[1,4′-bipiperidine]-1′-carbonyl)piperidin-4-yl)-2-(2,6-dioxopiperidin-3-yl)isoindoline-1,3-dione] | > 10 | > 10 |
| > 75 | 0.01 to 0.05 | – | – | Nc1ncnc2c1c(-c1ccc(Oc3ccccc3)cc1)nn2[C@@H]1CCCN(C2CCN(C(=O)N3CCC(CCN4CCN(c5ccc6c(c5)CN(C5CCC(=O)NC5=O)C6=O)CC4)CC3)CC2)C1 (stereo partly drawn) [Compound 182, 3-(5-(4-(2-(1-((R)-3-(4-amino-3-(4-phenoxyphenyl)-1H-pyrazolo[3,4-d]pyrimidin-1-yl)-[1,4′-bipiperidine]-1′-carbonyl)piperidin-4-yl)ethyl)piperazin-1-yl)-1-oxoisoindolin-2-yl)piperidine-2,6-dione] | 1 to 10 | 1 to 10 |
| > 90 | 0.01 to 0.05 | – | – | Nc1ncnc2c1c(-c1ccc(Oc3ccccc3)cc1)nn2[C@@H]1CCCN(C2CCN(C(=O)N3CCN(CC4CCN(c5ccc6c(c5)CN(C5CCC(=O)NC5=O)C6=O)CC4)CC3)CC2)C1 (stereo partly drawn) [Compound 172, 3-(5-(4-((4-((R)-3-(4-amino-3-(4-phenoxyphenyl)-1H-pyrazolo[3,4-d]pyrimidin-1-yl)-[1,4′-bipiperidine]-1′-carbonyl)piperazin-1-yl)methyl)piperidin-1-yl)-1-oxoisoindolin-2-yl)piperidine-2,6-dione] | 1 to 10 | 1 to 10 |
| > 90 | 0.01 to 0.05 | – | – | Nc1ncnc2c1c(-c1ccc(Oc3ccccc3)cc1)nn2[C@@H]1CCCN(C2CCN(C(=O)N3CCN(CCN4CCN(c5ccc6c(c5)C(=O)N(C5CCC(=O)NC5=O)C6=O)CC4)CC3)CC2)C1 (stereo partly drawn) [Compound 175, 5-(4-(2-(4-((R)-3-(4-amino-3-(4-phenoxyphenyl)-1H-pyrazolo[3,4-d]pyrimidin-1-yl)-[1,4′-bipiperidine]-1′-carbonyl)piperazin-1-yl)ethyl)piperazin-1-yl)-2-(2,6-dioxopiperidin-3-yl)isoindoline-1,3-dione] | 1 to 10 | 1 to 10 |
| > 50 | 0.01 to 0.05 | – | – | Nc1ncnc2c1c(-c1ccc(Oc3ccccc3)cc1)nn2[C@@H]1CCCN(C2CCN(C(=O)N3CCC(CCCN4CCN(c5ccc6c(c5)C(=O)N(C5CCC(=O)NC5=O)C6=O)CC4)CC3)CC2)C1 (stereo partly drawn) [Compound 193, 5-(4-(3-(1-((R)-3-(4-amino-3-(4-phenoxyphenyl)-1H-pyrazolo[3,4-d]pyrimidin-1-yl)-[1,4′-bipiperidine]-1′-carbonyl)piperidin-4-yl)propyl)piperazin-1-yl)-2-(2,6-dioxopiperidin-3-yl)isoindoline-1,3-dione] | 1 to 10 | > 10 |
| > 90 | 0.01 to 0.05 | – | – | Nc1ncnc2c1c(-c1ccc(Oc3ccccc3)cc1)nn2[C@@H]1CCCN(C2CCN(C(=O)N3CCC(CN4CCC(c5ccc6c(c5)CN(C5CCC(=O)NC5=O)C6=O)CC4)CC3)CC2)C1 (stereo partly drawn) [Compound 174, 3-(5-(1-((1-((R)-3-(4-amino-3-(4-phenoxyphenyl)-1H-pyrazolo[3,4-d]pyrimidin-1-yl)-[1,4′-bipiperidine]-1′-carbonyl)piperidin-4-yl)methyl)piperidin-4-yl)-1-oxoisoindolin-2-yl)piperidine-2,6-dione] | 1 to 10 | 1 to 10 |
| > 75 | 0.01 to 0.05 | – | – | Nc1ncnc2c1c(-c1ccc(Oc3ccccc3)cc1)nn2[C@@H]1CCCN(C2CCN(C(=O)N3CCC(CCC4CCN(c5ccc6c(c5)C(=O)N(C5CCC(=O)NC5=O)C6=O)CC4)CC3)CC2)C1 (stereo partly drawn) [Compound 185, 5-(4-(2-(1-((R)-3-(4-amino-3-(4-phenoxyphenyl)-1H-pyrazolo[3,4-d]pyrimidin-1-yl)-[1,4′-bipiperidine]-1′-carbonyl)piperidin-4-yl)ethyl)piperidin-1-yl)-2-(2,6-dioxopiperidin-3-yl)isoindoline-1,3-dione] | > 10 | > 10 |

More lines, now with the values behind:

| Structure (SMILES) | Dmax [3] [%] | DC50 [3] [µM] | degradation of BTK protein at 10^−6 M ([4]; 10^−6 M) | degradation of BTK protein ([4]; various concentrations, 24 hours) | IC50 [1] [µM] | IC50 [2] [µM] |
| --- | --- | --- | --- | --- | --- | --- |
| Nc1ncnc2c1c(-c1ccc(Oc3ccccc3)cc1)nn2[C@@H]1CCCN(C(=O)N2CCC(CCN3CCN(c4ccc5c(c4)C(=O)N(C4CCC(=O)NC4=O)C5=O)CC3)CC2)C1 (stereo partly drawn) [Compound 63, 5-(4-(2-(1-((R)-3-(4-amino-3-(4-phenoxyphenyl)-1H-pyrazolo(3,4-d)pyrimidin-1-yl)piperidine-1-carbonyl)piperidin-4-yl)ethyl)piperazin-1-yl)-2-(2,6-dioxopiperidin-3-yl)isoindoline-1,3-dione] | > 90 | < 0.01 | degradation | dose-dependent degradation | 1 to 10 | 1 to 10 |
| Nc1ncnc2c1c(-c1ccc(Oc3ccccc3)cc1)nn2[C@@H]1CCCN(C(=O)N2CCN(CC3CCN(c4ccc5c(c4)CN(C4CCC(=O)NC4=O)C5=O)CC3)CC2)C1 (stereo partly drawn) [Compound 58, 3-(5-(4-((4-((R)-3-(4-amino-3-(4-phenoxyphenyl)-1H-pyrazolo[3,4-d]pyrimidin-1-yl)piperidine-1-carbonyl)piperazin-1-yl)methyl)piperidin-1-yl)-1-oxoisoindolin-2-yl)piperidine-2,6-dione] | > 90 | 0.01 to 0.05 | – | – | < 1 | < 1 |
| Nc1ncnc2c1c(-c1ccc(Oc3ccccc3)cc1)nn2C1CCN(C(=O)N2CCN(CCN3CCN(c4ccc5c(c4)C(=O)N(C4CCC(=O)NC4=O)C5=O)CC3)CC2)CC1 (stereo not drawn) [Compound 95, 5-(4-(2-(4-(4-(4-amino-3-(4-phenoxyphenyl)-1H-pyrazolo[3,4-d]pyrimidin-1-yl)piperidine-1-carbonyl)piperazin-1-yl)ethyl)piperazin-1-yl)-2-(2,6-dioxopiperidin-3-yl)isoindoline-1,3-dione] | > 90 | 0.01 to 0.05 | – | – | 1 to 10 | < 1 |
| Nc1ncnc2c1c(-c1ccc(Oc3ccccc3)cc1)nn2C1CCN(C(=O)N2CCN(CCN3CCC(c4ccc5c(c4)C(=O)N(C4CCC(=O)NC4=O)C5=O)CC3)CC2)CC1 (stereo not drawn) [Compound 99, 5-(1-(2-(4-(4-(4-amino-3-(4-phenoxyphenyl)-1H-pyrazolo[3,4-d]pyrimidin-1-yl)piperidine-1-carbonyl)piperazin-1-yl)ethyl)piperidin-4-yl)-2-(2,6-dioxopiperidin-3-yl)isoindoline-1,3-dione] | > 90 | 0.01 to 0.05 | – | – | > 10 | 1 to 10 |
| Nc1ncnc2c1c(-c1ccc(Oc3ccccc3)cc1)nn2[C@@H]1CCCN(C(=O)N2CCC(CN3CCC(c4ccc5c(c4)CN(C4CCC(=O)NC4=O)C5=O)CC3)CC2)C1 (stereo partly drawn) [Compound 62, 3-(5-(1-((1-((R)-3-(4-amino-3-(4-phenoxyphenyl)-1H-pyrazolo[3,4-d]pyrimidin-1-yl)piperidine-1-carbonyl)piperidin-4-yl)methyl)piperidin-4-yl)-1-oxoisoindolin-2-yl)piperidine-2,6-dione] | > 90 | 0.01 to 0.05 | – | – | < 1 | < 1 |
| Nc1ncnc2c1c(-c1ccc(Oc3ccccc3)cc1)nn2[C@@H]1CCCN(CC2CCN(CC3CCN(c4ccc5c(c4)CN(C4CCC(=O)NC4=O)C5=O)CC3)CC2)C1 (stereo partly drawn) [Compound 130, 3-(5-(4-((4-(((R)-3-(4-amino-3-(4-phenoxyphenyl)-1H-pyrazolo[3,4-d]pyrimidin-1-yl)piperidin-1-yl)methyl)piperidin-1-yl)methyl)piperidin-1-yl)-1-oxoisoindolin-2-yl)piperidine-2,6-dione] | > 90 | 0.01 to 0.05 | – | – | 1 to 10 | 1 to 10 |
| Nc1ncnc2c1c(-c1ccc(Oc3ccccc3)cc1)nn2[C@@H]1CCCN(C(=O)N2CCN(CCCN3CCC(c4ccc5c(c4)C(=O)N(C4CCC(=O)NC4=O)C5=O)CC3)CC2)C1 (stereo partly drawn) [Compound 111, 5-(1-(3-(4-((R)-3-(4-amino-3-(4-phenoxyphenyl)-1H-pyrazolo[3,4-d]pyrimidin-1-yl)piperidine-1-carbonyl)piperazin-1-yl)propyl)piperidin-4-yl)-2-(2,6-dioxopiperidin-3-yl)isoindoline-1,3-dione] | > 75 | > 0.05 | – | – | 1 to 10 | 1 to 10 |
| Nc1ncnc2c1c(-c1ccc(Oc3ccccc3)cc1)nn2[C@@H]1CCCN(C(=O)N2CCC(CN3CCC(c4ccc5c(c4)C(=O)N(C4CCC(=O)NC4=O)C5=O)CC3)CC2)C1 (stereo partly drawn) [Compound 61, 5-(1-((1-((R)-3-(4-amino-3-(4-phenoxyphenyl)-1H-pyrazolo[3,4-d]pyrimidin-1-yl)piperidine-1-carbonyl)piperidin-4-yl)methyl)piperidin-4-yl)-2-(2,6-dioxopiperidin-3-yl)isoindoline-1,3-dione] | > 90 | 0.01 to 0.05 | – | – | < 1 | < 1 |
| Nc1ncnc2c1c(-c1ccc(Oc3ccccc3)cc1)nn2[C@@H]1CCCN(CC2CCN(CCCN3CCN(c4ccc5c(c4)C(=O)N(C4CCC(=O)NC4=O)C5=O)CC3)CC2)C1 (stereo partly drawn) [Compound 137, 5-(4-(3-(4-(((R)-3-(4-amino-3-(4-phenoxyphenyl)-1H-pyrazolo[3,4-d]pyrimidin-1-yl)piperidin-1-yl)methyl)piperidin-1-yl)propyl)piperazin-1-yl)-2-(2,6-dioxopiperidin-3-yl)isoindoline-1,3-dione] | > 75 | 0.01 to 0.05 | – | – | > 10 | > 10 |
